“And” between values parts separate entries of the source, which are not always exact repeats. Equal values may be shown once.
Experiment: Biodistribution studies of 11C tracers;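 as to Total brain uptake: percentage of injected dose (% ID)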
Assay type: in vivo, Wistar rats
Conditions: for SUV Blood / SUV Cerebellum / SUV Cerebrum total / SUV Cortex / SUV Hippocampus / SUV Striatum: normalized for body weight
Summary of the method: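 Healthy male Wistar rats (n=3 per time point) received about 11 or 22 MBq tracer i.v. via tail vein under isoflurane; sacrificed at 2, 30 and 60 min p.i. Gamma counting of blood and organs gave %ID and %ID/g, with blood taken as 7% of body mass.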

## [11CH3]Oc1ccc(F)c(F)c1C1CCN(c2ccn3c(CC4CC4)nnc3c2Cl)CC1 [[^11C]B-10, 8-chloro-3-(cyclopropylmethyl)-7-[4-[2,3-difluoro-6-[^11C]methoxyphenyl]-1-piperidinyl]-1,2,4-triazolo[4,3-a]pyridine]
2 min p.i.
  % ID Blood: 6.0 % ID and 6.0 ± 1.3 % ID
  % ID Carcass: 38.5 ± 2.5 % ID
  % ID Cerebellum: 0.15 % ID and 0.149 ± 0.054 % ID
  % ID Cerebrum total: 0.46 % ID and 0.456 ± 0.114 % ID
  % ID Cortex: 0.053 ± 0.025 % ID
  % ID Heart: 4.3 ± 0.3 % ID
  % ID Hippocampus: 0.017 ± 0.005 % ID
  % ID Intestines: 8.5 ± 0.2 % ID
  % ID Kidneys: 7.8 ± 1.1 % ID
  % ID Liver: 32.3 ± 3.2 % ID
  % ID Lungs: 1.8 ± 0.1 % ID
  % ID Rest of cerebrum: 0.387 ± 0.084 % ID
  % ID Spleen + Pancreas: 1.5 ± 0.3 % ID
  % ID Stomach: 1.8 ± 0.1 % ID
  % ID Striatum: 0.026 ± 0.012 % ID
  % ID Urine: 0.1 ± 0.0 % ID
  Total brain uptake: 0.64 % ID and 0.64 ± 0.1 % ID
  SUV Blood: 0.90 ± 0.02
  SUV Cerebellum: 1.59 ± 0.06
  SUV Cerebrum total: 1.12 ± 0.03
  SUV Cortex: 1.16 and 1.16 ± 0.04
  SUV Hippocampus: 1.11 ± 0.08
  SUV Striatum: 1.37 ± 0.05
30 min p.i.
  % ID Blood: 3.9 ± 0.1 % ID
  % ID Carcass: 62.97 ± 2.4 % ID
  % ID Cerebellum: 0.152 ± 0.023 % ID
  % ID Cerebrum total: 0.637 ± 0.078 % ID
  % ID Cortex: 0.071 ± 0.006 % ID
  % ID Heart: 1.8 ± 0.1 % ID
  % ID Hippocampus: 0.021 ± 0.004 % ID
  % ID Intestines: 9.2 ± 1.4 % ID
  % ID Kidneys: 3.3 ± 0.2 % ID
  % ID Liver: 16.2 ± 0.4 % ID
  % ID Lungs: 0.8 ± 0.0 % ID
  % ID Rest of cerebrum: 0.511 ± 0.063 % ID
  % ID Spleen + Pancreas: 1.1 ± 0.1 % ID
  % ID Stomach: 1.8 ± 0.4 % ID
  % ID Striatum: 0.034 ± 0.005 % ID
  % ID Urine: 0.3 ± 0.0 % ID
  Total brain uptake: 0.80 ± 0.1 % ID
  SUV Blood: 0.50 ± 0.00
  SUV Cerebellum: 1.68 and 1.68 ± 0.05
  SUV Cerebrum total: 1.34 ± 0.03
  SUV Cortex: 1.39 and 1.39 ± 0.05
  SUV Hippocampus: 0.93 ± 0.02
  SUV Striatum: 1.39 ± 0.03
60 min p.i.
  % ID Blood: 3.4 % ID and 3.4 ± 0.2 % ID
  % ID Carcass: 63.7 ± 1.8 % ID
  % ID Cerebellum: 0.172 ± 0.030 % ID
  % ID Cerebrum total: 0.598 ± 0.036 % ID
  % ID Cortex: 0.070 ± 0.002 % ID
  % ID Heart: 1.2 ± 0.1 % ID
  % ID Hippocampus: 0.026 ± 0.002 % ID
  % ID Intestines: 11.8 ± 0.0 % ID
  % ID Kidneys: 2.6 ± 0.2 % ID
  % ID Liver: 13.7 ± 1.3 % ID
  % ID Lungs: 0.7 ± 0.0 % ID
  % ID Rest of cerebrum: 0.466 ± 0.033 % ID
  % ID Spleen + Pancreas: 1.4 ± 0.5 % ID
  % ID Stomach: 2.0 ± 0.4 % ID
  % ID Striatum: 0.035 ± 0.005 % ID
  % ID Urine: 0.4 ± 0.1 % ID
  % ID present in liver and intestines: 25.5 % ID
  % ID present in the urinary system: 3.0 % ID
  Total brain uptake: 0.78 ± 0.0 % ID
  SUV Blood: 0.50 ± 0.00
  SUV Cerebellum: 1.52 ± 0.02
  SUV Cerebrum total: 1.19 ± 0.01
  SUV Cortex: 1.08 ± 0.01
  SUV Hippocampus: 0.94 ± 0.01
  SUV Striatum: 1.55 ± 0.01

— patent US20130230459A1, “RADIOLABELLED mGluR2 PET LIGANDS” (Janssen Pharmaceuticals, Inc., priority 2010, published 2013)
